Data reported in article PMC12739383, “Optimization of solid-state fermentation conditions for high β-galactosidase-producing lactic acid bacteria and its application in low-lactose dairy products” (Frontiers in Bioengineering and Biotechnology, 2025).
Each block holds one compound with its values, some of them ahead of it.

What was measured:
Format in all cases: biochemical, Lactiplantibacillus plantarum
[1] = system: T1, β-galactosidase produced by L. plantarum LP-15; assay: o-nitrophenol release at […] nm, Lineweaver-Burk, […]; conditions: optimal conditions (pH 6.5, 42 °C); 50 mM phosphate buffer; partially purified enzyme; read-out: Value/Range
T1 construct: gene lacL; native enzyme from solid-state fermentation extract

[2] = system: T1, β-galactosidase produced by L. plantarum LP-15; assay: initial rate kinetics; lactose read-out not told; conditions: conditions not given; partially purified enzyme; read-out: Value/Range
Description: initial rate kinetics; lactose read-out not told on β-galactosidase produced by L. plantarum LP-15

[3] = biological target: T1, β-galactosidase produced by L. plantarum LP-15; assay: product inhibition kinetics; conditions: competitive, inhibited substrate not told, partially purified enzyme, read-out: Value/Range
Description: product inhibition kinetics on β-galactosidase produced by L. plantarum LP-15

Km [1]: 2.8 ± 0.1 mM
Compound: O=[N+]([O-])c1ccccc1O[C@@H]1O[C@H](CO)[C@H](O)[C@H](O)[C@H]1O [ONPG, o-Nitrophenyl-β-D-galactopyranoside]

Km [2]: 18.5 ± 0.5 mM
Compound: OC[C@H]1O[C@@H](O[C@H]2[C@H](O)[C@@H](O)C(O)O[C@@H]2CO)[C@H](O)[C@@H](O)[C@H]1O (stereo partly drawn) [lactose]

Ki [3]: 85 mM
Compound: OC[C@H]1OC(O)[C@H](O)[C@@H](O)[C@H]1O (stereo partly drawn) [galactose]
